Where “and” joins values, the source holds several entries; their conditions need not be identical. Identical values can stand only once.
Columns and labels:
GSTO1 [1] = biological target: T1, GSTO1 (Homo sapiens, UniProt P78417); assay: In-gel fluorescence competitive CMFDA binding assay, recombinant GSTO1; conditions: inhibition of CMFDA binding
T1 sequence (P78417 1-241): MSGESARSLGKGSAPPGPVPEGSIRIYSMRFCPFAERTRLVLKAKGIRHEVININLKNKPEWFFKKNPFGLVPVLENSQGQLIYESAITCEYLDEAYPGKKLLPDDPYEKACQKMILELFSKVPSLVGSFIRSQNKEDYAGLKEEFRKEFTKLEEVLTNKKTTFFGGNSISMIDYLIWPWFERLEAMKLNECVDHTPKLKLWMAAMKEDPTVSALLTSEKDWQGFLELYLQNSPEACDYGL
Excerpt: (§1) Primary screening of GSTO inhibitors was based on competitive inhibition of CMFDA binding to endogenous GSTO. Briefly, HCT116^p53+/+ cells (4 × 10^4 per well) were coated in a 12-well plate. […] Cells were then washed with PBS and lysed using Cell Lytic M buffer (Sigma). […] Gels were immediately scanned on a Typhoon variable mode imager (Amersham Bioscience). Quantification of fluorescent band intensity was done using Image Quant 5.2 software.

endogenous GSTO1 = biological target: T2, endogenous GSTO1 (Homo sapiens, UniProt P78417); assay: In-gel fluorescence competitive CMFDA binding assay, endogenous GSTO1 in HCT116; conditions: 10 µM; inhibition of CMFDA binding, HCT116
T2 sequence (P78417 1-241): T1 sequence (P78417 1-241)
Excerpt: as §1

HCT116p53+/+ cell = assay: MTT cell proliferation at single concentration; assay type: cell-based, human
Outline: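 Cancer cells attached overnight, exposed to GSTO1 inhibitors for 72 h, then MTT added for 3 h at 37 °C; formazan dissolved in DMSO, absorbance read at 570 nm. At least three independent dose–response experiments, triplicate per concentration.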

GSTO1 [2] = biological target: T1, GSTO1; assay: GSTO1 substrate assay (reduction of 4-NPG); conditions: for IC50: read-out: GSTO substrate assay IC50, cluster screening tables
Description: For activity screening, we adapted a GSTO1 substrate assay that relies on the quantification of the reduction of S-(4-nitrophenacyl)glutathione (4-NPG), a GSTO1-specific substrate[17], using recombinant human GSTO1 in a high-throughput screening format.
Enzyme activity was measured by monitoring the reduction of 4-NPG to 4-nitroacetophenone by GSTO1.

Question: Which results are given for Cc1ccc(C)c(-n2nc(C)cc2NC(=O)CCl)c1 [C2-4]?
Answer: GSTO binding assay (% Inhibition at 10 µM) Recombinant (GSTO1 [1]): 35.8%; GSTO binding assay (% Inhibition at 10 µM) Endogenous (endogenous GSTO1): 51.3%; % Inhibition of HCT116p53+/+ cell proliferation at 10 µM (HCT116p53+/+ cell): 81.4% and 84.4%; GSTO substrate assay % Inhibition at 10 µM (GSTO1 [2]): 0.5%

Question: O=C(CCl)N1CCN(S(=O)(=O)C=Cc2ccccc2)CC1 [C5-16] was tested. Which “GSTO binding assay (% Inhibition at 10 µM) Recombinant” value (GSTO1 [1]) did it give?
Answer: 82.7%

Question: And the “GSTO binding assay (% Inhibition at 10 µM) Endogenous” value (endogenous GSTO1)?
Answer: 61.7%

Question: And the “% Inhibition of HCT116p53+/+ cell proliferation at 10 µM” value (HCT116p53+/+ cell)?
Answer: 48.3% and 46.5%

Question: And the “GSTO substrate assay % Inhibition at 10 µM” value (GSTO1 [2])?
Answer: 2.4%

Question: For CN(C)C(CNC(=O)CCl)c1ccccc1 (centres unmarked) [C3-12], which “GSTO binding assay (% Inhibition at 10 µM) Recombinant” value (GSTO1 [1]) is on record?
Answer: 22.0%

Question: What about the “GSTO binding assay (% Inhibition at 10 µM) Endogenous” value (endogenous GSTO1) of the same compound?
Answer: 9.7%

Question: What about the “% Inhibition of HCT116p53+/+ cell proliferation at 10 µM” value (HCT116p53+/+ cell) of the same compound?
Answer: 5%

Question: What about the “GSTO substrate assay % Inhibition at 10 µM” value (GSTO1 [2]) of the same compound?
Answer: 83.2%

Question: With CC(C)(C)c1ccc(C(=O)NNC(=O)CCl)cc1 [C3-20] as the compound, how does the “GSTO binding assay (% Inhibition at 10 µM) Recombinant” value (GSTO1 [1]) read?
Answer: 3.9%

Question: What about the “GSTO binding assay (% Inhibition at 10 µM) Endogenous” value (endogenous GSTO1) of the same compound?
Answer: 32.9%

Question: What about the “% Inhibition of HCT116p53+/+ cell proliferation at 10 µM” value (HCT116p53+/+ cell) of the same compound?
Answer: 29.1%

Question: What about the “GSTO substrate assay % Inhibition at 10 µM” value (GSTO1 [2]) of the same compound?
Answer: 42.7%

Question: Which results are given for Cc1ccc(C)c(S(=O)(=O)N2CCN(C(=O)CCl)CC2)c1 [C5-12]?
Answer: GSTO binding assay (% Inhibition at 10 µM) Recombinant (GSTO1 [1]): 66.0%; GSTO binding assay (% Inhibition at 10 µM) Endogenous (endogenous GSTO1): 47.1%; % Inhibition of HCT116p53+/+ cell proliferation at 10 µM (HCT116p53+/+ cell): 7.3%; GSTO substrate assay % Inhibition at 10 µM (GSTO1 [2]): 84.9%

Question: How did the “GSTO binding assay (% Inhibition at 10 µM) Recombinant” value (GSTO1 [1]) turn out when O=C(CCl)Nc1ccccc1C(=O)NCc1ccco1 [C1-13] was run?
Answer: 35.2%

Question: What about the “GSTO binding assay (% Inhibition at 10 µM) Endogenous” value (endogenous GSTO1) of the same compound?
Answer: 61.1%

Question: What about the “% Inhibition of HCT116p53+/+ cell proliferation at 10 µM” value (HCT116p53+/+ cell) of the same compound?
Answer: 14.3% and 6.6%

Question: And the “GSTO substrate assay % Inhibition at 10 µM” value (GSTO1 [2])?
Answer: 62.2%

Question: Which results are given for NC(=O)CCN(Cc1ccccc1)C(=O)CCl [C4-14]?
Answer: GSTO binding assay (% Inhibition at 10 µM) Recombinant (GSTO1 [1]): 45.2%; GSTO binding assay (% Inhibition at 10 µM) Endogenous (endogenous GSTO1): 56.8%; % Inhibition of HCT116p53+/+ cell proliferation at 10 µM (HCT116p53+/+ cell): 70.3% and 75%; GSTO substrate assay % Inhibition at 10 µM (GSTO1 [2]): 89.1%

Question: Which results are given for CCOc1cc2c(cc1CNC(=O)CCl)OC(C)C2 (centres unmarked) [C3-5]?
Answer: GSTO binding assay (% Inhibition at 10 µM) Recombinant (GSTO1 [1]): 14.7%; GSTO binding assay (% Inhibition at 10 µM) Endogenous (endogenous GSTO1): 31.8%; % Inhibition of HCT116p53+/+ cell proliferation at 10 µM (HCT116p53+/+ cell): 64.1% and 63.6%; GSTO substrate assay % Inhibition at 10 µM (GSTO1 [2]): 85.1%

Question: For Cc1cc(NC(=O)CCl)ccc1N1CCCC1 [C1-16], which “GSTO binding assay (% Inhibition at 10 µM) Recombinant” value (GSTO1 [1]) is on record?
Answer: 49.2%

Question: And the “GSTO binding assay (% Inhibition at 10 µM) Endogenous” value (endogenous GSTO1)?
Answer: 46.7%

Question: What about the “% Inhibition of HCT116p53+/+ cell proliferation at 10 µM” value (HCT116p53+/+ cell) of the same compound?
Answer: 41.9%

Question: And the “GSTO substrate assay % Inhibition at 10 µM” value (GSTO1 [2])?
Answer: 87.8%

Question: For N#Cc1ccccc1S(=O)(=O)N1CCN(C(=O)CCl)CC1 [C5-13], which “GSTO binding assay (% Inhibition at 10 µM) Recombinant” value (GSTO1 [1]) is on record?
Answer: 61.1%

Question: What about the “GSTO binding assay (% Inhibition at 10 µM) Endogenous” value (endogenous GSTO1) of the same compound?
Answer: 66.2%

Question: What about the “% Inhibition of HCT116p53+/+ cell proliferation at 10 µM” value (HCT116p53+/+ cell) of the same compound?
Answer: 81.1% and 55.9%

Question: And the “GSTO substrate assay % Inhibition at 10 µM” value (GSTO1 [2])?
Answer: 98.1%

Question: What about the IC50 (GSTO1 [2]) of the same compound?
Answer: 156 nM

Question: Which “GSTO binding assay (% Inhibition at 10 µM) Recombinant” value (GSTO1 [1]) does the source give for O=C(CCl)Nc1ccccc1N1CCCC1=O [C1-18] here?
Answer: 6.4%

Question: What about the “GSTO binding assay (% Inhibition at 10 µM) Endogenous” value (endogenous GSTO1) of the same compound?
Answer: 54.4%

Question: And the “% Inhibition of HCT116p53+/+ cell proliferation at 10 µM” value (HCT116p53+/+ cell)?
Answer: 41.5% and 41.7%

Question: What about the “GSTO substrate assay % Inhibition at 10 µM” value (GSTO1 [2]) of the same compound?
Answer: 3.7%

Question: What does the source list for CCOC(=O)c1c(NC(=O)CCl)sc2c1CCN(CC)C2 [C2-17]?
Answer: GSTO binding assay (% Inhibition at 10 µM) Recombinant (GSTO1 [1]): 51.5%; GSTO binding assay (% Inhibition at 10 µM) Endogenous (endogenous GSTO1): 24.8%; % Inhibition of HCT116p53+/+ cell proliferation at 10 µM (HCT116p53+/+ cell): 85.2% and 94.5%; GSTO substrate assay % Inhibition at 10 µM (GSTO1 [2]): 77.2%

Question: Which results are given for N#CCCN(C(=O)CCl)c1cccc(C(F)(F)F)c1 [C4-2]?
Answer: GSTO binding assay (% Inhibition at 10 µM) Recombinant (GSTO1 [1]): 53.2%; GSTO binding assay (% Inhibition at 10 µM) Endogenous (endogenous GSTO1): 52.8%; % Inhibition of HCT116p53+/+ cell proliferation at 10 µM (HCT116p53+/+ cell): 84.1% and 93.6%; GSTO substrate assay % Inhibition at 10 µM (GSTO1 [2]): 78.6%; IC50 (GSTO1 [2]): 1070 nM

Question: CCN1CCN(c2ccc(NC(=O)CCl)cc2)CC1 [C1-20] was tested. Which “GSTO binding assay (% Inhibition at 10 µM) Recombinant” value (GSTO1 [1]) did it give?
Answer: -8.5%

Question: What about the “GSTO binding assay (% Inhibition at 10 µM) Endogenous” value (endogenous GSTO1) of the same compound?
Answer: -15.1%

Question: What about the “% Inhibition of HCT116p53+/+ cell proliferation at 10 µM” value (HCT116p53+/+ cell) of the same compound?
Answer: 43.7% and 39%

Question: What about the “GSTO substrate assay % Inhibition at 10 µM” value (GSTO1 [2]) of the same compound?
Answer: 66.9%

Question: How did the “GSTO binding assay (% Inhibition at 10 µM) Recombinant” value (GSTO1 [1]) turn out when Cc1cccc2sc(N(Cc3ccccc3)C(=O)CCl)nc12 [C4-16] was run?
Answer: 66.3%

Question: And the “GSTO binding assay (% Inhibition at 10 µM) Endogenous” value (endogenous GSTO1)?
Answer: 30.0%

Question: And the “% Inhibition of HCT116p53+/+ cell proliferation at 10 µM” value (HCT116p53+/+ cell)?
Answer: 86.3% and 89.8%

Question: What about the “GSTO substrate assay % Inhibition at 10 µM” value (GSTO1 [2]) of the same compound?
Answer: 32.6%

— publication PMC5059489, “Mechanistic evaluation and transcriptional signature of a glutathione S-transferase omega 1 inhibitor” (Nature Communications, 2016)
